In patent US11572475B2, “Carbocyanines for G-quadruplex DNA stabilization and telomerase inhibition” (GEORGIA STATE UNIVERSITY RESEARCH FOUNDATION, INC., priority 2011, dated 2023):

What was measured:
[1] = tested on: A2T2; test: Isothermal calorimetry, A2T2; assay type: binding; settings: 25° C.
Description: (§1) DNA binding is dependent on enthalpy and entropy, components of the Gibbs free energy. Isothermal calorimetry measures the heat absorbed (endothermic binding) or released (exothermic binding) in binding at the μcalorie level. By examining the thermodynamics of different compounds, compounds can be analyzed to determine what factors favor quadruplex over duplex DNA binding. Enthalpy and binding constants are determined from measuring the heat change when compound is injected into a DNA solution, and the equations ΔG=ΔH−TΔS ΔG=−RT ln K are used to calculate entropy and Gibbs free energy.
(§2) Solutions of compound (0.2 mM) were injected 30 times into solutions of DNA (0.02 mM) on a VPC-ITC. All solutions were degasses at 25° C. for 15 minutes. TRIS/K^+ buffer was used in the reference cell. The injections were monitored at 25° C. with a reference power of 1 μcal/sec, an initial delay of 300 sec, and a stirring speed of 290. The first injection was 2 μL for 4 sec, with a spacing of 300 sec, and a filter period of 1 sec. The remaining 29 injections were 10 μL volume for a duration of 20 sec, with a spacing of 300 sec, and a filter period of 1 sec. The data was analyzed by VPViewer 2000 software.
(§3) Isothermal calorimetry (ITC) experiments were performed to test the SPR and fluorescence preference in binding c-myc over hTelo. […]

[2] = tested on: HeLa cells; test: Trypan blue exclusion assay for cell viability, HeLa; assay type: cell-based; settings: for Hela cells killed: after 24 h
Description: (§4) To evaluate the cytotoxic properties of the cyanines described herein, trypan blue exclusion assay for cell viability was performed on 10 compounds at two different concentrations (5 μM and 20 μM). To test the cancer selectivity of the dyes, the results were compared in a cancer cell line, HeLa and a non-cancerous cell line, HDF. The loss of membrane integrity in dead and dying cells allows preferential uptake of labels like trypan blue. At the end of the incubation times with the dyes, HeLa or HDF cells were pelleted and washed with PBS. Well-suspended cells were mixed with equal volume of 0.4% trypan blue in 1×PBS, pH 7.4, followed by incubation at room temperature for 5 min. Cells were examined under the microscope and blue-stained cells were considered non-viable.

[3] = tested on: Duplex DNA; test: Thermal melting UV-Vis absorbance, duplex DNA; assay type: binding; settings: for Change in Thermal Melting Points, Duplex, 1:1: ratio 1:1 (R); for Change in Thermal Melting Points, Duplex, 2:1: ratio 2:1 (R); for Change in Thermal Melting Points, Duplex, 4:1: ratio 4:1 (R); for Change in Thermal Melting Points, Duplex, 6:1: ratio 6:1 (R)
Description: (§5) Three DNA sequences were used: Human Telomere (HTelo), c-myc, and Duplex (Integrated DNA Technologies, San Diego, Calif.). The sequences are shown below:
(§6) The buffer used was 10 mM Tris base (Fischer Scientific, Fairlawn, N.J.), 50 mM Potassium Chloride (Fischer Scientific, Fairlawn, N.J.), with the pH adjusted to 7.5 with Hydrochloric Acid (Fischer Scientific, Fairlawn, N.J.).
(§7) DNA folding and unfolding (melting) can be measured using absorbance at a constant wavelength of 260 nm for duplex DNA and 295 nm for quadruplex DNA while the temperature is increased, for example from 25° C. to 95° C. At these wavelengths, the resulting curves decrease in absorbance for quadruplex and increase for duplex DNA. Buffer solution and presence of DNA-binding compounds alter the Tm melting temperature, or midpoint between fully folded and unfolded. An increase in melting temperature in the presence of DNA-binding compounds indicates a stabilizing effect of the compound on the DNA structure.
(§8) The selectivity of a given cyanine for quadruplex DNA can be evaluated using thermal melting. The number in parentheses next to the compound number corresponds to the compound number in Schemes 1 and 2.
(§9) Thermal melting studies were also performed on compounds T4 and T5 (Scheme 2) and ZK-14 and SP-2-36.

[4] = tested on: c-myc; test: Isothermal calorimetry, c-myc; assay type: binding; settings: ITC, 25° C.
Description: as §1, §2, §3

[5] = tested on: hTelo; test: Isothermal calorimetry, hTelo; assay type: binding, human; settings: 25° C.
Description: as §1, §2, §3

[6] = tested on: c-Myc quadruplex DNA; test: Fluorescence titration with c-Myc quadruplex; assay type: binding; settings: fluorescence intensity of bound ligand divided by that of free ligand
Text: (§10) Atoms absorb energy and can emit it as heat (vibrational relaxation), fast light emission (fluorescence), or slow light emission (phosphorescence). Most of the cyanines described herein fluoresce in response to near-infrared wavelengths of light absorption. As the cyanines bind to DNA, π-π stacking and hydrogen bonding is altered leading to a change in fluorescence emission. This change can be measured in direct correlation to DNA binding. In some cases an approximate binding constant can be determined from measuring fluorescence enhancement as DNA is titrated into a solution of fluorescent compound. Fluorescent enhancement, or the maximum emission divided by the minimum emission of the titration (compound saturated with DNA divided by free compound) at a fixed wavelength is useful to compare DNA affinity between a family of compounds.
(§11) A UV-Vis absorbance scan is first conducted to acquire the excitation wavelength. A 5 μM solution of compound in 1 mL, of Tris/K+ buffer is scanned from 800 nm to 200 nm at a rate of 60 nm/min with a 5 nm slit width. All DNAs are diluted in Tris/K+ buffer. The human telomere and c-Myc DNA are annealed into a quadruplex motif by heating at 95° C. in the presence of potassium ions in a hot water bath for approximately five minutes, then allowing the solution to slowly come to room temperature. In a fluorescence cell, an emission scan of 1 μM of compound in 1 mL of Tris Buffer is taken (Varian Cary Eclipse, Walnut Creek, Calif.) with appropriate parameters based on the excitation wavelength, an excitation slit width of 5 nm, and an emission slit width of 5 nm. Then 0.05 μM of DNA is titrated into the solution and scanned under the same conditions after each addition. The solution is titrated to saturation, at which the change in fluorescence intensity is nearly zero.
(§12) Due to the highly stabilized parallel quadruplex structure of c-Myc, thermal melting could not be considered for this sequence. Thus, fluorescence can be used to measure binding affinity towards the two quadruplex structures. […] Fluorescence enhancement, or the fluorescence intensity of the bound ligand divided by that of the free ligand, was considered in evaluating binding.

[7] = tested on: Human Telomere (HT) quadruplex DNA; test: Thermal melting UV-Vis absorbance, quadruplex DNA; assay type: binding; settings: for Selectivity for quadruplex over duplex DNA by thermal melting: quadruplex vs duplex; for Change in Thermal Melting Points, Human Telomere (HT), 1:1: ratio 1:1 (R); for Change in Thermal Melting Points, Human Telomere (HT), 2:1: ratio 2:1 (R); for Change in Thermal Melting Points, Human Telomere (HT), 4:1: ratio 4:1 (R); for Change in Thermal Melting Points, Human Telomere (HT), 6:1: ratio 6:1 (R)
Description: as §5
The concentration of each DNA sample mixed with MilliQ water was determined by UV-Vis at 260 nm using their extinction coefficients. Quadruplexes from Human Telomere (Tel22) and c-myc were prepared by heating the corresponding oligonucleotides at 90° C. for 5 minutes in a 10 mM Tris/50 mM KCl buffer at pH 7.5 and then cooling to room temperature (to favor the intramolecular folding).
as §6, §7, §8, §9

[8] = tested on: Human Telomere (HT) quadruplex DNA; test: Fluorescence titration with human telomere quadruplex; assay type: binding; settings: fluorescence intensity of bound ligand divided by that of free ligand
Text: as §10, §11, §12

[9] = Trypan blue exclusion assay for cell viability, HDF; assay type: cell-based; settings: human, HDF cells (non-cancerous cell line); at the lower dose (5 μM); read-out: cell viability of normal cells (HDF)
Description: as §4

[10] = tested on: HDF cells; test: as above; assay type: cell-based; settings: at both concentrations; text also says lower concentrations (5-10 μM)
Description: as §4

## CC1(C)C(/C=C/C=C2/N(CCC[N+](C)(C)C)c3ccc(Br)cc3C2(C)C)=[N+](CCC[N+](C)(C)C)c2ccc(Br)cc21 [MH5 (28)]
[1]
  ITC binding to A2T2: No binding
[2]; HeLa, both concentrations studied (5 μM and 20 μM)
  Cytotoxicity to cancer cells: highly cytotoxic to cancer cells
[3]
  Change in Thermal Melting Points, Duplex, 1:1: −0.1
  Change in Thermal Melting Points, Duplex, 2:1: −1.0
  Change in Thermal Melting Points, Duplex, 4:1: −1.0
  Change in Thermal Melting Points, Duplex, 6:1: −0.1
[4]
  K (M^−1), c-myc: 1.19e+06 M⁻¹
[5]
  ITC binding to hTelo: Weak binding- unable to fit
[6]
  Fluorescence Enhancement, c-Myc: 4.65
[7]
  Selectivity for quadruplex over duplex DNA by thermal melting: selectively bind to quadruplex DNA with little or no binding to duplex DNA
  Change in Thermal Melting Points, Human Telomere (HT), 1:1: 1
  Change in Thermal Melting Points, Human Telomere (HT), 2:1: 5.2
  Change in Thermal Melting Points, Human Telomere (HT), 4:1: 14.2
  Change in Thermal Melting Points, Human Telomere (HT), 6:1: 23.7
[8]
  Fluorescence Enhancement, HT: 1.6

## CC1(C)C(/C=C/C(Br)=C/C=C2/N(CCC[N+](C)(C)C)c3ccc(I)cc3C2(C)C)=[N+](CCC[N+](C)(C)C)c2ccc(I)cc21 [A-161 (50)]
[2]; 5 μM
  Hela cells killed: > 70%
[2]; 20 μM
  Hela cells killed: > 70%
[9]
  viability at 5 µM: 100%
[7]
  Change in Thermal Melting Points, Human Telomere (HT), 1:1: 4.1
  Change in Thermal Melting Points, Human Telomere (HT), 2:1: 9.2
  Change in Thermal Melting Points, Human Telomere (HT), 4:1: 16.2
  Change in Thermal Melting Points, Human Telomere (HT), 6:1: 21.7

## CC1(C)C(/C=C/C(Br)=C/C=C2\N(CCC[N+](C)(C)C)c3ccccc3C2(C)C)=[N+](CCC[N+](C)(C)C)c2ccccc21 [A-C8 (43)]
[1]
  ITC binding to A2T2: No binding
[3]
  Change in Thermal Melting Points, Duplex, 1:1: 0.0
  Change in Thermal Melting Points, Duplex, 2:1: −1.1
  Change in Thermal Melting Points, Duplex, 4:1: 0.9
  Change in Thermal Melting Points, Duplex, 6:1: −0.2
[10]
  cell death, HDFs: ~35%
[4]
  K (M^−1), c-myc: 802000 M⁻¹
[5]; ITC
  K (M^−1), hTelo: 55700 M⁻¹
[6]
  Fluorescence Enhancement, c-Myc: 3.46
[7]
  Selectivity for quadruplex over duplex DNA by thermal melting: selectively bind to quadruplex DNA with little or no binding to duplex DNA
  Change in Thermal Melting Points, Human Telomere (HT), 1:1: 2.0
  Change in Thermal Melting Points, Human Telomere (HT), 2:1: 4.6
  Change in Thermal Melting Points, Human Telomere (HT), 4:1: 11.6
  Change in Thermal Melting Points, Human Telomere (HT), 6:1: 15.6
[8]
  Fluorescence Enhancement, HT: 1.66
